Experimental findings from patent US11229636B2, “Substituted tetrahydroquinolinone compounds as ROR gamma modulators” (Aurigene Discovery Technologies Limited, priority 2015, dated 2022) are described below.

Some results are limits rather than exact numbers.

One experiment has as its target RORγ LBD (Homo sapiens (Human), UniProt P51449). The experiment in a line: ROR gamma radio-ligand binding assay (3H 25-Hydroxycholesterol competitive displacement, dextran charcoal method). Conditions: for inhibition at 1 µM / RORγ ligand binding assay: % inhibition @1 μM: 1 μM compound; for inhibition at 10 µM / RORγ ligand binding assay: % inhibition @ 10 μM: 10 μM compound; for IC50: in range. The method, then: Gene corresponding to the ligand binding domain of RORγ (247-497 amino acids) was sub-cloned into pGEX4T1 vector. Transformants of E. coli BL21 (DE3) containing pGEX4T1-RORγ (247-497) were grown to an OD of 0.8 at 37° C. and induced with 0.5 mM isopropyl-β-D-thiogalactopyranoside (IPTG) for 18 hours at 18° C. Cells were harvested and resuspended in 20 mM Tris-HCl (pH 8.5), 0.3 M NaCl, 10% Glycerol, 2 mM β-Me (β-Mercaptoethanol), 2 mM CHAPS, protease inhibitors, 0.6 mM PMSF and Lysozyme. Supernatant of lysate was passed through glutathione sepharose 4B affinity beads (GE health care) pre-equilibrated with 20 mM Tris-HCl (pH 8.5), 0.3 M NaCl, 10% Glycerol, 2 mM β-Me. RORγ was eluted using a gradient of reduced glutathione (3-20 mM). Fractions containing RORγ protein were pooled, concentrated and passed through Superdex 75 gel filtration (GE health care) column equilibrated with 20 mM Na-phosphate pH 8.0, 0.2 M NaCl, 10% glycerol. The peak fractions from gel filtration column were pooled and stored at −80° C. for Binding assay.
ROR gamma radioligand binding was performed using ^3H 25-Hydroxycholesterol in a competitive displacement assay using dextran charcoal method. Using 5 nM ^3H 25-Hydroxycholesterol with 300 ng RORγ LBD (in house expressed in E. coli) along with the compound were incubated in the binding buffer (50 mM HEPES, pH 7.5, 150 mM NaCl, 0.01% BSA and 5 mM MgCl2) for 30 min at room temperature. Then dextran-charcoal mixture (0.5% charcoal: 0.05% dextran) was used for separation and the supernatant was read on the Perkin Elmer Trilux Microbeta counter. Dose response curves were generated for 10 compound concentrations using GraphPad Prism software Version 5 (San Diego, Calif., USA) using non-linear regression curve fit for sigmoidal dose response (variable slope).

Experiment [1] concerns the target ROR gamma ligand binding domain (Homo sapiens (Human), UniProt P51449). The experiment in a line: ROR gamma luciferase reporter assay (GAL4-ROR gamma LBD, HEK293 cells). The class given is cell-based. Conditions: 48 hours treatment, read-out: RORγ luciferase Reporter assay: IC50 (nM) (in range). In short, it runs like this: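 HEK293 cells were co-transfected with a GAL4 DBD–RORγ LBD fusion (hRluc vector) and a 9xGAL4 UAS luc2P reporter, then treated with compounds for 48 h. Bright-Glo luminescence was used to derive potency.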

ROR gamma ligand binding domain, sequence (P51449 269-508): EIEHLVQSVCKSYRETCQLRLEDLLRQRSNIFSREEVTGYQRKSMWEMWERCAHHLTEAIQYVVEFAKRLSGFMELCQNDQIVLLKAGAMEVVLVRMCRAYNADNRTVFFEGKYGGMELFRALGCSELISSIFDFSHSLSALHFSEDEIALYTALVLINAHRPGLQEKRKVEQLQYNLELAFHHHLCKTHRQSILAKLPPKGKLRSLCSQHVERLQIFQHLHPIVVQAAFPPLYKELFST
RORγ LBD, sequence (P51449 268-518): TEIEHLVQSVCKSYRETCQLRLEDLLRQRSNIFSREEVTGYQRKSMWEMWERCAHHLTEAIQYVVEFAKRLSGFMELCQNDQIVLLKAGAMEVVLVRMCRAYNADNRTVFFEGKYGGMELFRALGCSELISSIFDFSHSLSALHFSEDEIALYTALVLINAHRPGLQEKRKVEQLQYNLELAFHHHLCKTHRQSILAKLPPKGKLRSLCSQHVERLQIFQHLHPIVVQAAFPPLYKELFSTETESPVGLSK

On RORγ LBD, `CCS(=O)(=O)c1ccc(CC(=O)Nc2cc(C)c3c(n2)CCC(C)(c2ccc(OC)nc2)C3=O)cc1` (stereo not shown) [Compound 17, 2-(4-(ethylsulfonyl)phenyl)-N-(6-(6-methoxypyridin-3-yl)-4,6-dimethyl-5-oxo-5,6,7,8-tetrahydroquinolin-2-yl)acetamide] gave an inhibition at 1 µM of 92% and an inhibition at 10 µM of 96%. For the same compound, in experiment [1], the IC50 was below 100 nM.

As for `CCS(=O)(=O)c1ccc(CC(=O)Nc2ccc3c(n2)CCC(C)(c2nccn4ccnc24)C3=O)cc1` (stereo not shown) [Compound 6, 2-(4-(ethylsulfonyl)phenyl)-N-(6-(imidazo[1,2-a]pyrazin-8-yl)-6-methyl-5-oxo-5,6,7,8-tetrahydroquinolin-2-yl)acetamide], at RORγ LBD, the inhibition at 1 µM came to 72%, the inhibition at 10 µM amounted to 96% and the IC50 is 150 to 300 nM. Also, the IC50 in experiment [1] was in the range of 100 to 500 nM.

On RORγ LBD, `CCS(=O)(=O)c1ccc(CC(=O)Nc2cc(C)c3c(n2)CCC(C)(c2nccn4ccnc24)C3=O)cc1` (stereo not shown) [Compound 26, 2-(4-(ethylsulfonyl)phenyl)-N-(6-(imidazo[1,2-a]pyrazin-8-yl)-4,6-dimethyl-5-oxo-5,6,7,8-tetrahydroquinolin-2-yl)acetamide] displayed an inhibition at 1 µM of 65%, an inhibition at 10 µM of 99% and an IC50 above 300 nM. Besides, the IC50 in experiment [1] lay in the range of 100 to 500 nM.

In the case of `CCS(=O)(=O)c1ccc(CC(=O)Nc2cc(C)c3c(n2)CCC(C)(c2ccc(OC)nn2)C3=O)cc1` (single isomer, unassigned) [compound 109, 2-(4-(ethylsulfonyl)phenyl)-N-(6-(6-methoxypyridazin-3-yl)-4,6-dimethyl-5-oxo-5,6,7,8-tetrahydroquinolin-2-yl)acetamide], on RORγ LBD, the inhibition at 1 µM stood at 91% and the “RORγ ligand binding assay: % inhibition @ 10 μM” value was determined as 36%. The IC50 in experiment [1] is above 500 nM.

Consider `CCS(=O)(=O)c1ccc(CC(=O)Nc2ccc3c(n2)CCC(C)(c2ncc(OC)cn2)C3=O)cc1` (stereo not shown) [Compound 56, 2-(4-(ethylsulfonyl)phenyl)-N-(6-(5-methoxypyrimidin-2-yl)-6-methyl-5-oxo-5,6,7,8-tetrahydroquinolin-2-yl)acetamide], for which, at RORγ LBD, the inhibition at 1 µM was found to be 96%, testing at 10 µM gave an inhibition of 94% and the IC50 was below 150 nM. Further, in experiment [1], the IC50 was below 100 nM.

On RORγ LBD, `CCS(=O)(=O)c1ccc(CC(=O)Nc2ccc3c(n2)CCC(C)(c2nccn4cccc24)C3=O)cc1` (stereo not shown) [Compound 15, 2-(4-(ethylsulfonyl)phenyl)-N-(6-methyl-5-oxo-6-(pyrrolo[1,2-a]pyrazin-1-yl)-5,6,7,8-tetrahydroquinolin-2-yl)acetamide] came in with an inhibition at 1 µM of 95%, an inhibition at 10 µM of 92% and an IC50 below 150 nM. Moreover, the IC50 in experiment [1] was below 100 nM.

As to `COc1ccc(C2(C)CCc3nc(NC(=O)Cc4ccc(S(C)(=O)=O)cc4)cc(C)c3C2=O)nn1` (stereo not shown) [Compound 35, N-(6-(6-methoxypyridazin-3-yl)-4,6-dimethyl-5-oxo-5,6,7,8-tetrahydroquinolin-2-yl)-2-(4-(methylsulfonyl)phenyl)acetamide], at RORγ LBD, the inhibition at 1 µM worked out at 80%, the inhibition at 10 µM was determined as 98% and the IC50 was 150 to 300 nM. Further, in experiment [1], the IC50 lay in the range of 100 to 500 nM.

For the compound `CCS(=O)(=O)c1ccc(CC(=O)Nc2cc(C)c3c(n2)CCC(C)(c2ccc(O)cn2)C3=O)cc1` (stereo not shown) [Compound 88, 2-(4-(ethylsulfonyl)phenyl)-N-(6-(5-hydroxypyridin-2-yl)-4,6-dimethyl-5-oxo-5,6,7,8-tetrahydroquinolin-2-yl)acetamide], at RORγ LBD, testing at 1 µM gave an inhibition of 86%, 10 µM produced 90% inhibition and the IC50 lay in the range of 150 to 300 nM. The half-maximal inhibitory concentration (IC50) in experiment [1] is above 500 nM.

As to `CCS(=O)(=O)c1ccc(CC(=O)Nc2cc(C)c3c(n2)CCC(C)(c2cc(C)nc(C)n2)C3=O)cc1` (single isomer, unassigned) [compound 108, N-(6-(2,6-dimethylpyrimidin-4-yl)-4,6-dimethyl-5-oxo-5,6,7,8-tetrahydroquinolin-2-yl)-2-(4-(ethylsulfonyl)phenyl)acetamide], on RORγ LBD, the “RORγ ligand binding assay: % inhibition @1 μM” value amounted to 78%, the “RORγ ligand binding assay: % inhibition @ 10 μM” value worked out at 28% and the IC50 is above 300 nM. The IC50 in experiment [1] was above 500 nM.

Turning to `CCS(=O)(=O)c1ccc(CC(=O)Nc2ccc3c(n2)CC(C)(C)C(c2ccc(O)cn2)C3=O)cc1` (stereo not shown) [Compound 90, 2-(4-(ethylsulfonyl)phenyl)-N-(6-(5-hydroxypyridin-2-yl)-7,7-dimethyl-5-oxo-5,6,7,8-tetrahydroquinolin-2-yl)acetamide], at RORγ LBD, testing at 1 µM gave an inhibition of 57%, the inhibition at 10 µM was found to be 84% and the IC50 was in the range of 150 to 300 nM. In addition, the IC50 in experiment [1] was above 500 nM.

`CCS(=O)(=O)c1ccc(CC(=O)Nc2ccc3c(n2)CCC(C)(c2cc(C)nc(C)n2)C3=O)cc1` (stereo not shown) [Compound 7, N-(6-(2,6-dimethylpyrimidin-4-yl)-6-methyl-5-oxo-5,6,7,8-tetrahydroquinolin-2-yl)-2-(4-(ethylsulfonyl)phenyl)acetamide]: at RORγ LBD, the inhibition at 1 µM stood at 91%, the inhibition at 10 µM was determined as 100% and the half-inhibitory concentration (IC50) is below 150 nM. In addition, in experiment [1], the IC50 lay within 100 to 500 nM.

On RORγ LBD, `CCc1ccc(C2(C)CCc3nc(NC(=O)Cc4ccc(S(=O)(=O)CC)cc4)ccc3C2=O)nn1` (stereo not shown) [Compound 41, N-(6-(6-ethylpyridazin-3-yl)-6-methyl-5-oxo-5,6,7,8-tetrahydroquinolin-2-yl)-2-(4-(ethylsulfonyl)phenyl)acetamide] yielded an inhibition at 1 µM of 47% and an inhibition at 10 µM of 82%. The IC50 in experiment [1] is above 500 nM.

Regarding `CCS(=O)(=O)c1ccc(CC(=O)Nc2ccc3c(n2)CCC(C)(c2ccc(O)nc2)C3=O)cc1` (stereo not shown) [Compound 40, 2-(4-(ethylsulfonyl)phenyl)-N-(6-(6-hydroxypyridin-3-yl)-6-methyl-5-oxo-5,6,7,8-tetrahydroquinolin-2-yl)acetamide], at RORγ LBD, the inhibition at 1 µM came to 44% and the inhibition at 10 µM is 88%. In experiment [1], the IC50 is above 500 nM.

On to `CCS(=O)(=O)c1ccc(CC(=O)Nc2ccc3c(n2)CCC(C)(c2ccnc(C(C)C)n2)C3=O)cc1` (stereo not shown) [Compound 50, 2-(4-(ethylsulfonyl)phenyl)-N-(6-(2-isopropylpyrimidin-4-yl)-6-methyl-5-oxo-5,6,7,8-tetrahydroquinolin-2-yl)acetamide], for which, at RORγ LBD, the inhibition at 1 µM was 91%, the inhibition at 10 µM was determined as 90% and the half-inhibitory concentration (IC50) was below 150 nM. In addition, the IC50 in experiment [1] was in the range of 100 to 500 nM.

On RORγ LBD, `CCS(=O)(=O)c1ccc(CC(=O)Nc2cc(C)c3c(n2)CCC(C)(c2ccc(C)nn2)C3=O)cc1` (stereo not shown) [Compound 34, N-(4,6-dimethyl-6-(6-methylpyridazin-3-yl)-5-oxo-5,6,7,8-tetrahydroquinolin-2-yl)-2-(4-(ethylsulfonyl)phenyl)acetamide] returned an inhibition at 1 µM of 74%, an inhibition at 10 µM of 97% and an IC50 above 300 nM. Besides, the IC50 in experiment [1] was above 500 nM.

As to `CCS(=O)(=O)c1ccc(CC(=O)Nc2ccc3c(n2)CCC(C)(c2nccn4cc(C)nc24)C3=O)cc1` (stereo not shown) [Compound 9, 2-(4-(ethylsulfonyl)phenyl)-N-(6-methyl-6-(2-methylimidazo[1,2-a]pyrazin-8-yl)-5-oxo-5,6,7,8-tetrahydroquinolin-2-yl)acetamide], on RORγ LBD, the inhibition at 1 µM was 90%, the inhibition at 10 µM worked out at 100% and the IC50 is below 150 nM. Further, in experiment [1], the IC50 was in the range of 100 to 500 nM.

As for `CCS(=O)(=O)c1ccc(CC(=O)Nc2cc(C)c3c(n2)CCC(C)(c2cc(C)nc(C)n2)C3=O)cc1` (stereo not shown) [Compound 28, N-(6-(2,6-dimethylpyrimidin-4-yl)-4,6-dimethyl-5-oxo-5,6,7,8-tetrahydroquinolin-2-yl)-2-(4-(ethylsulfonyl)phenyl)acetamide], on RORγ LBD, testing at 1 µM gave an inhibition of 77%, 10 µM produced 100% inhibition and the IC50 fell in the range of 150 to 300 nM. Moreover, the IC50 in experiment [1] was 100 to 500 nM.

On to `CCS(=O)(=O)c1ccc(CC(=O)Nc2cc(C)c3c(n2)CCC(C)(c2ccc(OC)nn2)C3=O)cc1` (single isomer, unassigned) [compound 110, 2-(4-(ethylsulfonyl)phenyl)-N-(6-(6-methoxypyridazin-3-yl)-4,6-dimethyl-5-oxo-5,6,7,8-tetrahydroquinolin-2-yl)acetamide], for which, on RORγ LBD, the “RORγ ligand binding assay: % inhibition @1 μM” value is 100% and the “RORγ ligand binding assay: % inhibition @ 10 μM” value is recorded as 81%. Also, the IC50 in experiment [1] is below 100 nM.
